Measured values from patent EP1709956A1, “Hair treatment composition comprising betains” (Henkel Kommanditgesellschaft auf Aktien, priority 2001, dated 2002).

Tested on: humane Haarfollikel
Assay: in vitro model of isolated human scalp hair follicles (Philpott): hair shaft elongation in organ culture
Assay type: cell-based
Settings: 9 days in culture
From the text: Auf diese Publikation wird ausdrücklich Bezug genommen. Gemäß dieser Veröffentlichung wurde wie folgt verfahren: a. Isolation humaner Kopfhauthaarfollikel Es wird okzipitale, humane Vollhaut isoliert. b. Aufreinigung der isolierten humanen Kopfhautfollikel Die herausgezupften Haarfollikel werden in ein frisches Isolationsmedium überführt, darin gesammelt und anschließend mehrfach unter sterilen Bedingungen mit frischem Medium gewaschen. Je drei Haarfollikel werden randomisiert in ein Well einer 24-Well Platte mit 500µl kompletten Mediums (verwendet wird Williams E Medium, supplementiert mit 2 mM L-Glutamin, 10 µg/ml Hydrokortison, 10 µg/ml Insulin, 10 µg/ml Penizillin und 10 µg/ml Streptomycin). Vor der Zugabe der zu testenden Substanzen wurden die Haarfollikel für 30 Minuten im Inkubator präinkubiert. c. Testung der Substanzen Es werden Carnitin, Carnitintartrat sowie Minoxidil als Vergleichssubstanz mit bekannter Wirkung geprüft. Die Prüfkonzentration für Carnitin und Carnitiontartrat beträgt jeweils 50 µmol/1. Die Haarfollikel werden für 9 Tage in Kultur gehalten. Das Medium inklusive der Testsubstanzen wird täglich gewechselt. Die Länge der jeweiligen Haarschäfte wird am 9. Tag mit Hilfe eines Meßokulares am Dissektionsmikroskop gemessen und dokumentiert. Die Prüfung von Minoxidil ist eine Positivkontrolle, weil Minoxidil in der Literatur bereits als wachstumsstimulierend für humane Haarfollikel beschrieben wird. […] Hierzu sind folgende Änderungen gegenüber der Prüfung des Carnitines und des Carnitintartrates notwendig: Testkonzentration des Minoxidil 10^-5 mol/l in 1 % Ethanol, Ersatz des Streptomycines durch 10µg/ml Ciprofloxacin. Zur statistischen Auswertung der Ergebnisse wird die Länge der Haarschäfte in % der Gesamtdurchschnittslänge aller Haarfollikel am Tage 0 berechnet. Alle Haarfollikel einer Gruppe werden gepoolt und der Mittelwert sowie die Standardabweichung statistisch nach üblichen Methoden berechnet. Signifikante Unterschiede werden mit dem Student T-Test berechnet. d.

[1] = 50 µmol/l, medium changed daily, shaft length measured on day 9, in % of mean length of all follicles on day 0

## C[N+](C)(C)CC(O)CC(=O)[O-] (stereo not drawn) [Carnitin]
[1]
  Längenwachstum des Haarschaftes in %: 67%

## C[N+](C)(C)CC(O)CC(=O)[O-] (stereo not drawn) [Carnitintartrat]
[1]
  Längenwachstum des Haarschaftes in %: 87%

## Nc1cc(N2CCCCC2)nc(N)[n+]1[O-] [Minoxidil, reference compound]
Positive control, 10^-5 mol/l in 1 % Ethanol, streptomycin replaced by 10 µg/ml Ciprofloxacin, measured on day 9
  Längenwachstum des Haarschaftes in %: 34%
